Patent US20140057841A1, “HUMAN INSULIN AND ANALOG CONJUGATE THEREOF” (Chongqing Fagen Biomedical Inc., priority 2011, published 2014)
Like-named read-outs stand apart in the source and are kept apart here.

Tests used:
[1] = tested on: Type 1 diabetes model of KunMing mice; test: Blood sugar lowering in mice Type 1 diabetes model; type: in vivo; details: subcutaneous 0.25 mg/kg, STZ mice; for time the blood sugar lowering effect may sustain: empty stomach blood sugar
Description: 70 healthy KunMing male SPF mice (purchased from the Third Military Medical Univ., China) with body weight of 25-30 g were fed with water only and no food for 14 hours, and then subject to 120 mg/kg of rapid intraperitoneal injection of streptozotocin (STZ) solution (4.8 mg/ml) that was prepared with citric acid- trisodium citrate buffer, to establish a Type 1 diabetes model. After the injection, the mice were immediately fed with food and water. After 48 hours of model establishing, blood was sampled from caudal vein, and blood sugar value was detected with glucometer (Bayer's Fast Glucometer) after fasting for 2 hours, wherein a blood sugar value of >11.1 mmol/L indicates successful modeling. […] Groups B, C, and D were respectively subject to subcutaneous administration by a dosage of 0.25 mg/kg, and group A was injected with isovolumetric solvent. Before administration (i.e., 0 hour) and after 1, 2, 6, 10, 15, 18, and 24 hours of administration, blood was sampled from caudal vein for the detection of empty stomach (fasting for 2 hours) blood sugar value. The average blood sugar value was calculated and time activity curve was made (FIG. 4).
The average blood sugar value was calculated and time activity curve was made (FIG. 5).

[2] = tested on: Type 1 diabetes model of New Zealand albino rabbits; test: Blood sugar lowering experiment on Type 1 diabetes model (IDDM) rabbits; type: in vivo; details: subcutaneous 0.2 mg/kg; for time the blood sugar lowering effect may sustain: tetraoxypyrimidine rabbits, empty stomach blood sugar; for hypoglycemic activity: rabbit Type 1 diabetes model
Description: 40 male New Zealand albino rabbits (purchased from the Third Military Medical Univ., China) with body weight of 2-3 kg were fed with water only and no food for 24 hours, and then subject to 5 ml/kg of ear vein single injection of tetraoxypyrimidine solution (with concentration of 20 mg/ml) to establish models. After the injection, the rabbits were immediately fed with food and water. After 3 days of model establishing, blood was sampled every day from ear vein after fasting for 6 hours, and blood sugar value was detected with glucometer, wherein a blood sugar value of >11.1 mmol/L indicates successful modeling. […] Groups B, C, and D were respectively subject to subcutaneous administration by a dosage of 0.2 mg/kg, and group A was injected with isovolumetric solvent. Before administration (i.e., 0 hour) and after 1, 2, 4, 8, 12, 24, 36, 48, 60, 72, 84, and 96 hours of administration, blood was sampled from ear vein for the detection of empty stomach (fasting for 6 hours) blood sugar value (Fast Glucometer, Bayer). The average blood sugar value was calculated and time activity curve was made (FIG. 6).
The average blood sugar value was calculated and time activity curve was made (FIG. 7).

[3] = tested on: Beagle dog Type 1 diabetes model; test: Blood sugar lowering experiment of DesB30-20 k conjugate on Beagle dog Type 1 diabetes model; type: in vivo, Beagle dogs
Description: 20 healthy Beagle dogs (purchased from the Third Military Medical Univ., China) with body weight of 5-8 kg were fed with water only and no food for 24 hours, and then subject to foreleg subcutaneous vein injection of tetraoxypyrimidine solution (200 mg/ml) and STZ solution (120 mg/ml), with respective dosage of 50 mg/kg and 30 mg/kg, to establish Type 1 diabetes models. After the injection, the dogs were immediately fed with food and water. After 72 hours of model establishing, successful modeling was indicated by the signs of polyphagia, polydipsia, polyuria, lose weight, and blood sugar value of >11.1 mmol/L. 12 modeled dogs were randomly divided into 3 groups, 4 for each group (group A, control, group B, administration by 0.05 mg/kg, and group C, administration by 0.10 mg/kg), and subject to subcutaneous administration for one time. After 0, 2, 6, 12, 18, 24, 36, 48, 72, 96, and 120 hours of administration, blood was sampled from hindlimb vein for the detection of empty stomach (fasting for 6 hours) blood sugar value (GOD-POD method). The average blood sugar value was calculated and single administration time activity curve was made (FIG. 8). […] Then, the model animals were tested with multiple times of subcutaneous administration, with an interval of 72 hours (with a dosage of 0.05 mg/kg, 0.10 mg/kg, or isovolumetric solvent) for 6 times. From Day 1 to Day 21 after the administration, empty stomach blood sugar value was detected every three days, and blood was sampled after the last administration for pharmacokinetics experiments. […] The durations of hypoglycemic activity for single and multiple administrations are basicly the same, i.e., 72 hours. During the multiple administrations, the empty stomach blood sugar value of animals in administration groups were kept in average with about 5 mmol/L, whereas the empty stomach blood sugar value of animals in control group were kept in average with about 25 mmol/L.

[4] = in animals; cited from earlier work
[5] = in human body; cited from earlier work

Substance	time the blood sugar lowering effect may sustain [1]	time the blood sugar lowering effect may sustain [2]	hypoglycemic activity [1]	hypoglycemic activity [2]	other results
Ins-20K: recombinant human insulin conjugate with 20K mPEG-SPA at Lys B29, prepared as in Example 4	about 18 hours	about 55 hours	–	–	–
DesB30-20K: DesB30 recombinant human insulin coupled at the ε-amino group of Lys B29 to 20K mPEG-SPA via amide bond	about 18 hours	about 55 hours	significant hypoglycemic activity	significant hypoglycemic activity	hypoglycemic activity ([3]; Beagle dogs Type 1 diabetes model, 0.05 and 0.10 mg/kg): significant hypoglycemic activity; average empty stomach blood sugar value during multiple administrations ([3]; administration groups (0.05 or 0.10 mg/kg s.c., every 72 hours, 6 times), control about 25 mmol/L): about 5 mmol/L; time blood sugar is effectively lowered ([3]; single subcutaneous administration, 0.10 mg/kg): 72 h; duration of hypoglycemic activity for single and multiple administrations ([3]; single, and multiple subcutaneous administrations (interval 72 hours, 6 times)): 72 h
insulin detemir	–	–	–	–	duration of activity [4]: 12 h; duration of activity [5]: 24 h
Ins-10K: recombinant human insulin conjugate with 10K mPEG-SPA at Lys B29, prepared as in Example 3	about 12 hours	about 35 hours	–	–	–
DesB30-5K: DesB30 recombinant human insulin coupled at the ε-amino group of Lys B29 to 5K mPEG-SPA via amide bond	about 8 hours	about 15 hours	significant hypoglycemic activity	significant hypoglycemic activity	–
Ins-5K: recombinant human insulin conjugate with 5K mPEG-SPA at Lys B29, prepared as in Example 2	about 8 hours	about 15 hours	–	–	–
DesB30-10K: DesB30 recombinant human insulin coupled at the ε-amino group of Lys B29 to 10K mPEG-SPA via amide bond	about 12 hours	about 30 hours	significant hypoglycemic activity	significant hypoglycemic activity	–
